# Assay results from article PMC7774954, “Interactomic affinity profiling by holdup assay: Acetylation and distal residues impact the PDZome-binding specificity of PTEN phosphatase” (PLoS ONE, 2020).
# *1 amine or outer side, *2 acyl side, *3 side chain or, on linkers, in order; H or OH if unused. Where a SMILES comes first, the peptide text is derived from it. The star is where a group is joined. X1 = O=C(CCCC[C@@H]1SC[C@@H]2NC(=O)N[C@@H]21)NCCCOCCOCCOCCCN*; Suc = O=C(CCC(=O)[*:2])[*:1]
# Experiments:
# INADL-5 = test: Holdup assay, INADL-5; type: binding, human
# MAST2 PDZ 1 = target: T1, MAST2 PDZ 1 (Homo sapiens, UniProt Q6P0Q8); test: Holdup assay, MAST2-1; type: binding
# T1 construct: made in house; host or cells: E. coli
# T1 sequence (Q6P0Q8 1104-1192 limits assumed): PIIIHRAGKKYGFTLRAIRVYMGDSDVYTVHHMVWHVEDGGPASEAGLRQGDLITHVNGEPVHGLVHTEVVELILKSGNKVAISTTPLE
# Experimental: (§1) The holdup assay was performed on a Tecan freedom Evo200 robot with 384-well plates in singlicate for the three 11-mer PTEN variants and the 13-mer PTEN peptide as described in [31, 32]. Briefly, prior to interaction assay, 2.5 μL of streptavidin resin was saturated in each well with 20 μL of biotinylated PBM peptides (42 μM) and then washed twice with an excess of free biotin, while the reference resin was incubated only with biotin. Right before the holdup experiment, the PDZ library was spiked with an internal standard of lysozyme. Then, the biotin- or PBM-saturated resin was incubated, each in a distinct well of a 384-well plate, with complete cell lysates diluted so that the concentration of the tag-PDZ present in the crude extract is adjusted at 4 μM. After a sufficient time to reach complex equilibrium (15 min.), a fast and mild filtration step is performed and the tag-PDZ concentrations were measured by capillary electrophoresis instrument (LabChip GXII, PerkinElmer, Massachusets, USA). Standard markers were used to convert migration time into molecular weight on the LabChip software and inappropriate molecular weight markers were corrected or excluded.
# (§2) For filtered data, the BI was extracted with the following equation (Eq 1) that estimates the depleted fraction after superimposition of the sample and reference electropherograms: BI=Iref−Ilig/Iref (1) where Iref and Ilig are the intensities of the tag-PDZ peaks measured, for each PDZ domain/PBM peptide interaction pair, in the biotin reference and the PBM electropherograms, respectively.
# (§3) BIs were transformed into dissociation constants (KD) using the following formula: KD=([PDZtot]−BI·[PDZtot])·([PBMtot]−BI·[PDZtot])/BI·[PDZtot] (2) where [PDZtot] and [PBMtot] correspond to the total concentrations of the PDZ domain (usually around 4 μM) and the PBM peptide used during the assay. Since the PBMtot concentration in the resin during the holdup assay parameter may differ from one peptide to another and remains unknown, it is impossible to directly convert BI values into KD constants. We systematically determined the KD constants for a subset of PDZ/PBM pairs by competitive FP. […] For each PBM, the average peptide concentration was calculated after outlier rejection based on the absolute distances from the median as compared to three times the standard deviation (3σ rule), with never more than 2 values rejected.
# LAP2-1 = LAP2-1 (Homo sapiens, UniProt Q96RT1); test: Holdup assay, LAP2-1; type: binding
# LAP2-1, sequence (Q96RT1 1321-1410): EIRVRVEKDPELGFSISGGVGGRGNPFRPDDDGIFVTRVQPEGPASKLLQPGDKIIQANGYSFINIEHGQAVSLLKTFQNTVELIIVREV
# MPDZ-1 = test: Holdup assay, MPDZ-1; type: binding, human
# GRIP2-3 = test: Holdup assay, GRIP2-3; type: binding, human
# MAGI3 PDZ 2 = target: T2, MAGI3 PDZ 2 (Homo sapiens, UniProt Q5TCQ9); test: Holdup assay, MAGI3-2; type: binding; conditions: for BI: MAGI3-2
# T2 construct: made in house; host or cells: E. coli
# T2 sequence (Q5TCQ9 410-492 limits assumed): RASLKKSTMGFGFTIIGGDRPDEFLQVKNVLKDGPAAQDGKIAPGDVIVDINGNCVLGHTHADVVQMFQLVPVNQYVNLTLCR
# Experimental: as §1, §2, §3
# GRIP1-7 = test: Holdup assay, GRIP1-7; type: binding, human
# LNX2-1 = test: Holdup assay, LNX2-1; type: binding, human
# GRASP-1 = GRASP-1 (Homo sapiens, UniProt Q7Z6J2); test: Holdup assay, GRASP-1; type: binding; conditions: for BI: GRASP-1
# GRASP-1, sequence (Q7Z6J2 100-189): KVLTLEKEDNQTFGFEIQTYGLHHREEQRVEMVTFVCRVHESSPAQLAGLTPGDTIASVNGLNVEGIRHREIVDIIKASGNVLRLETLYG
# GRIP2-5 = test: Holdup assay, GRIP2-5; type: binding, human
# ARHGEF12-1 = target: T3, ARHGEF12-1 (Homo sapiens, UniProt Q9NZN5); test: Holdup assay, ARHGEF12-1; type: binding
# T3 sequence (Q9NZN5 72-151): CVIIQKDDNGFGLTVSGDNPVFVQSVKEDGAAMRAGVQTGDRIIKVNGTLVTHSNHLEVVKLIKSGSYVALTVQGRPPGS
# IL16-3 = test: Holdup assay, IL16-3; type: binding, human
# DLG5-2 = test: Holdup assay, DLG5-2; type: binding, human
# HTRA3-1 = test: Holdup assay, HTRA3-1; type: binding, human
# DLG4 PDZ 1 = target: T4, DLG4 PDZ 1 (Homo sapiens, UniProt P78352); test: Holdup assay, DLG4-1; type: binding; conditions: for BI: DLG4-1
# T4 construct: made in house; host or cells: E. coli
# T4 sequence (P78352 65-151): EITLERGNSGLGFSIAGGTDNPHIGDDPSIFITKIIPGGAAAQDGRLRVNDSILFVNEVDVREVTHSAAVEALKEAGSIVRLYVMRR
# Experimental: as §1, §2, §3
# FRMPD3-1 = test: Holdup assay, FRMPD3-1; type: binding, human
# DEPTOR-1 = test: Holdup assay, DEPTOR-1; type: binding, human
# APBA1-1 = test: Holdup assay, APBA1-1; type: binding, human
SMILES,BI (INADL-5),LogKD (INADL-5),Kd (MAST2 PDZ 1),BI (MAST2 PDZ 1; MAST2-1),BI (LAP2-1),Kd (LAP2-1),BI (MPDZ-1),BI (GRIP2-3),BI (MAGI3 PDZ 2),BI (GRIP1-7),BI (LNX2-1),Kd (GRASP-1),BI (GRASP-1),BI (GRIP2-5),BI (ARHGEF12-1),BI (IL16-3),BI (DLG5-2),BI (HTRA3-1),BI (DLG4 PDZ 1),BI (FRMPD3-1),further results
CC[C@H](C)[C@H](NC(=O)[C@H](CCC(N)=O)NC(=O)[C@@H](NC(=O)[C@H](Cc1c[nH]cn1)NC(=O)[C@H](CCC(N)=O)NC(=O)[C@H](CC(=O)O)NC(=O)[C@H](CCC(=O)O)NC(=O)[C@H](CC(=O)O)NC(=O)CCC(=O)NCCCOCCOCCOCCCNC(=O)CCCC[C@@H]1SC[C@@H]2NC(=O)N[C@@H]21)[C@@H](C)O)C(=O)N[C@H](C(=O)N[C@@H](CCCCN)C(=O)N[C@H](C(=O)O)C(C)C)[C@@H](C)O [PTEN_11],-0.044,3.519,12.7 µM,0.711,0.305,74.7 µM,0.039,0.054,0.094,-0.03,0.094,33.1 µM,0.492,0.055,0.392,0.004,0.001,0.05,0.103,-0.078,"BI (binding intensity) (MAST2 PDZ 1; MAST2-1, holdup, singlicate, 0.00 no binding to 1.00 strong binding): 0.71; LogKD (MPDZ-1): 3.519; LogKD (GRIP2-3): 3.519; LogKD (GRIP1-7): 3.519; LogKD (LNX2-1): 3.519; LogKD (GRIP2-5): 3.519; Kd (ARHGEF12-1): 50.3 µM; LogKD (IL16-3): 3.519; LogKD (DLG5-2): 3.519; LogKD (HTRA3-1): 3.519; LogKD (FRMPD3-1): 3.519"
CC[C@H](C)[C@H](NC(=O)[C@H](CCC(N)=O)NC(=O)[C@@H](NC(=O)[C@H](Cc1c[nH]cn1)NC(=O)[C@H](CCC(N)=O)NC(=O)[C@H](CC(=O)O)NC(=O)[C@H](CCC(=O)O)NC(=O)[C@H](CC(=O)O)NC(=O)CCC(=O)NCCCOCCOCCOCCCNC(=O)CCCC[C@@H]1SC[C@@H]2NC(=O)N[C@@H]21)[C@@H](C)O)C(=O)N[C@H](C(=O)N[C@@H](CCCCNC(C)=O)C(=O)N[C@H](C(=O)O)C(C)C)[C@@H](C)O [PTEN_Ac],-0.076,3.605,4.07 µM,0.858,0.214,99.7 µM,0.074,0.055,0.405,-0.071,0,8.02 µM,0.757,0.067,0.535,-0.166,0.018,0.011,0.15,-0.12,LogKD (MPDZ-1): 3.605; LogKD (GRIP2-3): 3.605; BI (DEPTOR-1): -0.046; LogKD (DEPTOR-1): 3.605; Kd (MAGI3 PDZ 2): 38.8 µM; LogKD (GRIP1-7): 3.605; LogKD (LNX2-1): 3.605; BI (APBA1-1): -0.002; LogKD (APBA1-1): 3.605; LogKD (GRIP2-5): 3.605; Kd (ARHGEF12-1): 22.5 µM; LogKD (IL16-3): 3.605; LogKD (DLG5-2): 3.605; LogKD (HTRA3-1): 3.605; LogKD (FRMPD3-1): 3.605
CC[C@H](C)[C@H](NC(=O)[C@H](CCC(N)=O)NC(=O)[C@@H](NC(=O)[C@H](Cc1c[nH]cn1)NC(=O)[C@H](CCC(N)=O)NC(=O)[C@H](CC(=O)O)NC(=O)[C@H](CCC(=O)O)NC(=O)[C@H](CC(=O)O)NC(=O)CCC(=O)NCCCOCCOCCOCCCNC(=O)CCCC[C@@H]1SC[C@@H]2NC(=O)N[C@@H]21)[C@@H](C)O)C(=O)N[C@H](C(=O)N[C@@H](CCCNC(=N)N)C(=O)N[C@H](C(=O)O)C(C)C)[C@@H](C)O [PTEN_KR] ({X1-Suc}-DEDQHTQITRV-OH),-0.046,3.655,6.66 µM,0.767,0.205,93.8 µM,-0.039,0.027,0.445,-0.06,0.072,16.8 µM,0.575,0.006,0.433,-0.005,-0.028,0.065,0.229,-0.082,LogKD (MPDZ-1): 3.655; LogKD (GRIP2-3): 3.655; LogKD (GRIP1-7): 3.655; LogKD (LNX2-1): 3.655; LogKD (GRIP2-5): 3.655; Kd (ARHGEF12-1): 30.5 µM; LogKD (IL16-3): 3.655; LogKD (DLG5-2): 3.655; LogKD (HTRA3-1): 3.655; Kd (DLG4 PDZ 1): 81.1 µM; LogKD (FRMPD3-1): 3.655
CC[C@H](C)[C@H](NC(=O)[C@H](CCC(N)=O)NC(=O)[C@@H](NC(=O)[C@H](Cc1c[nH]cn1)NC(=O)[C@H](CCC(N)=O)NC(=O)[C@H](CC(=O)O)NC(=O)[C@H](CCC(=O)O)NC(=O)[C@H](CC(=O)O)NC(=O)[C@H](Cc1ccccc1)NC(=O)[C@@H]1CCCN1C(=O)CCC(=O)NCCCOCCOCCOCCCNC(=O)CCCC[C@@H]1SC[C@@H]2NC(=O)N[C@@H]21)[C@@H](C)O)C(=O)N[C@H](C(=O)N[C@@H](CCCCN)C(=O)N[C@H](C(=O)O)C(C)C)[C@@H](C)O [PTEN_13] ({X1-Suc}-PFDEDQHTQITKV-OH),-0.039,,1.28 µM,0.88,0.172,,0.011,0.027,0.414,0.015,-0.046,12.4 µM,0.544,-0.06,0.169,-0.001,-0.092,-0.059,0.077,-0.096,BI (DEPTOR-1): -0.005; Kd (MAGI3 PDZ 2): 21.7 µM; BI (APBA1-1): -0.05
